Source: patent US10940139B2, “Compounds that interact with the Ras superfamily for the treatment of cancers, inflammatory diseases, rasopathies, and fibrotic disease” (Shy Therapeutics LLC, priority 2017, dated 2021)

Tests used:
[1] = tested on: MIA-PACA2 pancreatic cancer cell lines; test: Cell proliferation assay, alternate assay conditions (DAPI fluorescence); assay type: cell-based; conditions: Homo sapiens, MIA PaCa-2; * = tested at 10 μM, alternate conditions, MIA-PACA2
Method: Cell lines: Tumor-derived pancreatic cancer cell lines MIA-PACA2 were purchased from ATCC and grown in complete DMEM-High Glucose medium supplemented with penicillin (100 U/mL), streptomycin (100 μg/mL), and 10% heat-inactivated FBS at 37° C. in a humidified incubator with 5% CO2.
Method: Cells are plated at 4000 cells/well density in 96-wells plate. The next day tested small molecules are added to the cells in the final concentration of 10 μM in the presence of 0.3% DMSO and 10% FBS. After small molecules addition, cells are incubated for 4 days at 37° C. in a humidified incubator with 5% CO2. For IC50 value determination, serial dilutions of compounds were added to cells under the same conditions.
Assay: At the end of the incubation period, cell cultures are fixed with a 50-50 mixture (v/v) acetone-methanol for 10 minutes at −20° C., followed by rehydration in PBS for 10 minutes at room temperature. After rehydration, cells are stained with DAPI (1 μg/ml) in PBS for 10 minutes at room temperature, followed by 3 washes with PBS. After staining, DAPI fluorescence is recorded (358 nm excitation/461 nm emission) with the 96-well plate reader Molecular Devices Spectramax M3; degree of small mole-cule-dependent proliferation inhibition is calculated from raw data assuming No Serum cells value as 100%.

[2] = target: KRas G12D mutant protein (Homo sapiens (Human), UniProt P01116, G12D); test: Ras GTP binding domain inhibition assay (labeled GTP); conditions: 20 μM compound; KRas G12D; read-out: % Inhibition at 20 μM of K-Ras mutant and wild-type protein, KRas G12D
[3] = target: KRas wild type (Homo sapiens (Human), UniProt P01116); test: as above; conditions: 20 μM compound; KRas wild type; read-out: % Inhibition at 20 μM of K-Ras mutant and wild-type protein, KRas wild type
In short: (§1)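 His-tagged KRas protein (3-10 μg/ml) was captured overnight at 4° C on nickel-coated wells in 50 mM Tris pH 7.5, 1 mM MgCl2, 1 mM DTT. Bound labeled GTP was read by fluorescence after washing.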

[4] = target: KRas Q61H mutant (Homo sapiens (Human), UniProt P01116, Q61H); test: as above; conditions: 20 μM compound; KRas Q61H; read-out: % Inhibition at 20 μM of K-Ras mutant and wild-type protein, KRas Q61H
In short: as §1

[5] = target: KRas G12C/Q61H double mutant (Homo sapiens (Human), UniProt P01116, G12C/Q61H); test: as above; conditions: 20 μM compound; KRas G12C/Q61H double mutant; read-out: % Inhibition at 20 μM of K-Ras mutant and wild-type protein, KRas G12C Q61H
In short: as §1

[6] = target: KRas G12D/Q61H double mutant (Homo sapiens (Human), UniProt P01116, G12D/Q61H); test: as above; conditions: 20 μM compound; KRas G12D/Q61H double mutant; read-out: % Inhibition at 20 μM of K-Ras mutant and wild-type protein, KRas G12D Q61H
In short: as §1

[7] = target: KRas G12C mutant (Homo sapiens (Human), UniProt P01116, G12C); test: as above; conditions: 20 μM compound; KRas G12C; read-out: % Inhibition at 20 μM of K-Ras mutant and wild-type protein, KRas G12C
In short: as §1

Chain of KRas Q61H mutant (P01116-2 other isoform, or with tags, fused parts or gaps Q61H): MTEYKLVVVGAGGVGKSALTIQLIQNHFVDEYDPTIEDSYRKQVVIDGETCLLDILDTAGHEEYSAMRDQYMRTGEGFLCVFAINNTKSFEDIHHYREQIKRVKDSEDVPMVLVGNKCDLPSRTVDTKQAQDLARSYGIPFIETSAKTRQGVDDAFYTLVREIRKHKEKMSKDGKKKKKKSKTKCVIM
Chain of KRas G12C mutant (P01116-2 other isoform, or with tags, fused parts or gaps G12C): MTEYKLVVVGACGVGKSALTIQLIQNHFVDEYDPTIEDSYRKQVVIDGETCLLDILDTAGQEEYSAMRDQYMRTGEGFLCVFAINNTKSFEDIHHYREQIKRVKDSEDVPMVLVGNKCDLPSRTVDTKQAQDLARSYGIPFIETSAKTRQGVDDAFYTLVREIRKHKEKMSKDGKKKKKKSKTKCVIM
Chain of KRas wild type (P01116-2 other isoform, or with tags, fused parts or gaps): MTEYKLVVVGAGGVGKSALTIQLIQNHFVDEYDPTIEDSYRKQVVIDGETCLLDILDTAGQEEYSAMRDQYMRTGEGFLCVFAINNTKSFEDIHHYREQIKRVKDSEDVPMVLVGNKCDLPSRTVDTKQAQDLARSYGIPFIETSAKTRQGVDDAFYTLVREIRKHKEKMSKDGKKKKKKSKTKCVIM
Chain of KRas G12D/Q61H double mutant (P01116-2 other isoform, or with tags, fused parts or gaps G12D/Q61H): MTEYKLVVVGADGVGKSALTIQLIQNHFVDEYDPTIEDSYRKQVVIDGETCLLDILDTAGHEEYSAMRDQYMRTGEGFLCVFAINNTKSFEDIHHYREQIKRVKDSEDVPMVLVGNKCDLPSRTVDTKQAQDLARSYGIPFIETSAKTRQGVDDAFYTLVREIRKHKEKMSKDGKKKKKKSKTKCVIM
Chain of KRas G12C/Q61H double mutant (P01116-2 other isoform, or with tags, fused parts or gaps G12C/Q61H): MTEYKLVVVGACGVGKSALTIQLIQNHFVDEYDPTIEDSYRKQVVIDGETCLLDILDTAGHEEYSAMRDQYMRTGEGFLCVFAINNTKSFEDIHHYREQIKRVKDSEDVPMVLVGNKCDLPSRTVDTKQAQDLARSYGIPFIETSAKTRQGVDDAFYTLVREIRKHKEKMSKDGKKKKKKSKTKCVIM
Chain of KRas G12D mutant protein (P01116-2 other isoform, or with tags, fused parts or gaps G12D): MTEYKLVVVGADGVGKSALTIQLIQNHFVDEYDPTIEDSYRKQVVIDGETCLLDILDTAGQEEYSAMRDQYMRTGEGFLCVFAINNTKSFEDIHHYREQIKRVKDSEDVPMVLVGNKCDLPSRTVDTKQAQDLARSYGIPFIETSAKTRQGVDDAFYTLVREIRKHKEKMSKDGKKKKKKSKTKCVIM

Row | inhibition at 20 µM [2] | inhibition at 20 µM [3] | inhibition at 20 µM [4] | inhibition at 20 µM [5] | inhibition at 20 µM [6] | inhibition at 20 µM [7] | Structure (SMILES) | inhibition at 10 µM [1]
1 |  |  |  |  |  |  | Oc1nc(-c2ccccn2)nc2c(C3CC3)csc12 [drawing 1820] | 76 to 100%
2 |  |  |  |  |  |  | Oc1nc(-c2ccccn2)nc2c(CC3CNC3)csc12 [drawing 1821] | 25 to 50%
3 |  |  |  |  |  |  | COc1cnc(CNC(=O)c2csc3c(O)nc(-c4ccccn4)nc23)[nH]c1=O [drawing 1822] | 51 to 75%
4 |  |  |  |  |  |  | COc1cnc(CNC(=O)c2cc3nc(-c4ccccn4)nc(O)c3s2)[nH]c1=O [drawing 1823] | 25 to 50%
5 |  |  |  |  |  |  | Cc1sc2c(O)nc(-c3ccccn3)nc2c1Br [drawing 1824] | 76 to 100%
6 |  |  |  |  |  |  | COc1cnc(CNC(=O)c2c(C)sc3c(O)nc(-c4ccccn4)nc23)[nH]c1=O [drawing 1825] | 0%
7 |  |  |  |  |  |  | COc1cnc(CNC(=O)c2sc3c(O)nc(-c4ccccn4)nc3c2C)[nH]c1=O [drawing 1826] | 0%
8 |  |  |  |  |  |  | O=C(c1csc2c(O)nc(-c3ccccn3)nc12)N1CCNC(c2ccc(Cl)cc2)C1 (stereo not shown) [drawing 1827] | 76 to 100%
9 |  |  |  |  |  |  | Oc1nc(-c2ccccn2)nc2c(CC3CCNC3)csc12 (stereo not shown) [drawing 1828] | 0%
10 |  |  |  |  |  |  | O=c1[nH]c(-c2ccccn2)nc2c([C@@H]3O[C@H](CO)[C@@H](O)[C@H]3O)csc12 [drawing 1829] | 76 to 100%
11 |  |  |  |  |  |  | Cn1cnc(-c2nc(O)c3c(-c4ccccc4)c(-c4ccncc4)sc3n2)c1 [drawing 1830] | 76 to 100%
12 |  |  |  |  |  |  | COCCNc1nc(-c2ccccn2)nc(-c2cccc(OCCN(C)C)c2)c1Oc1ccccc1 [drawing 1831] | 76 to 100%
13 |  |  |  |  |  |  | COCCNc1nc(-c2cn(C)cn2)nc2sc(-c3ccncc3)c(-c3ccccc3)c12 [drawing 1832] | 76 to 100%
14 |  |  |  |  |  |  | COc1nc(-c2cn(C)cn2)nc2sc(-c3ccncc3)c(-c3ccccc3)c12 [drawing 1833] | 76 to 100%
15 |  |  |  |  |  |  | OCC1(c2ccc(-c3nc(-c4ccccn4)nc(-c4ccc(C5(CO)CC5)cc4)c3Oc3ccccc3)cc2)CC1 [drawing 1834] | 76 to 100%
16 |  |  |  |  |  |  | COc1ccc(COC[C@H]2O[C@@H](c3csc4c(=O)[nH]c(-c5ccccn5)nc34)[C@H](O)[C@@H]2O)cc1 [drawing 1835] | 1 to 25%
17 | 25 to 50% | 1 to 25% | 51 to 75% | 51 to 75% | 25 to 50% | 25 to 50% | COc1ccc(COC[C@H]2O[C@@H](c3csc4c(=O)[nH]c(-c5ccccn5)nc34)[C@H](O)[C@@H]2O)cc1 [drawing 3533] | 
18 | 25 to 50% | 1 to 25% | 76 to 100% | 76 to 100% | 51 to 75% | 51 to 75% | OCC1(c2ccc(-c3nc(-c4ccccn4)nc(O)c3Oc3ccccc3)cc2)CC1 [drawing 3534] | 
19 | 51 to 75% | 51 to 75% | 51 to 75% | 76 to 100% | 51 to 75% | 51 to 75% | COCCNc1nc(-c2ccccn2)nc2c1c(-c1ccccc1)nn2-c1ccccn1 [drawing 3538] | 
20 | 51 to 75% | 25 to 50% | 51 to 75% | 51 to 75% | 51 to 75% | 51 to 75% | Oc1nc(-c2ccccn2)nc2c1c(-c1ccccc1)nn2-c1ccccn1 [drawing 3539] | 
21 | 51 to 75% | 25 to 50% | 51 to 75% | 25 to 50% | 51 to 75% | 51 to 75% | COc1nc(-c2ccccn2)nc2c1c(-c1ccccc1)nn2-c1ccccn1 [drawing 3540] | 
22 | 25 to 50% | 25 to 50% | 51 to 75% | 25 to 50% | 51 to 75% | 51 to 75% | COCC(C)Nc1nc(-c2ccccn2)nc2sc(-c3ccncc3)c(-c3ccccc3)c12 (stereo not shown) [drawing 3541] | 
23 | 76 to 100% | 25 to 50% | 51 to 75% | 76 to 100% | 51 to 75% | 25 to 50% | COc1c(O)nc(-c2ccccn2)nc1Oc1cccc(C(F)(F)F)c1 [drawing 3557] | 
24 | 51 to 75% | 1 to 25% | 51 to 75% | 76 to 100% | 51 to 75% | 51 to 75% | Oc1nc(-c2ccccn2)nc(Oc2cccc(C(F)(F)F)c2)c1O [drawing 3558] | 
25 | 51 to 75% | 51 to 75% | 25 to 50% | 25 to 50% | 51 to 75% | 25 to 50% | Oc1nc(-c2ccccn2)nc2cc(-c3ccncc3)sc12 [drawing 3561] | 
26 | 51 to 75% | 51 to 75% | 25 to 50% | 25 to 50% | 51 to 75% | 25 to 50% | Oc1nc(-c2ccccn2)nc2cc(-c3ccccc3)sc12 [drawing 3562] | 
